# Measured values published in paper PMC6553640 (Science signaling, 2018).
# Target: T1, TRIB1 (Homo sapiens, UniProt Q96RU8)
# T1 sequence (Q96RU8 84-372): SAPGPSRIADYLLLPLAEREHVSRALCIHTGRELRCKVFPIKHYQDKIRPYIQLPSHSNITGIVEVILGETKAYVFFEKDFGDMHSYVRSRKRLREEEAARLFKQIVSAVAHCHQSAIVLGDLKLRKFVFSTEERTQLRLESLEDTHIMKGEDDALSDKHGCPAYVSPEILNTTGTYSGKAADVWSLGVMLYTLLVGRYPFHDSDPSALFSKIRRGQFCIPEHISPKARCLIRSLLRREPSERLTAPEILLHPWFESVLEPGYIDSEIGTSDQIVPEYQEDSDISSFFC
# Assay: DSF destabilization
# Assay type: binding
structure (smiles),measurement,value
COc1cccc(COc2cc(-n3cnc4ccccc43)sc2C(N)=O)c1 [GW804482X],DSF destabilization,"although like TRIB2, destabilization was evident in the presence of GW804482X (fig. S3C)"
